Assay results from ChEMBL document CHEMBL1146646, “Benzimidazoles as new potent and selective DP antagonists for the treatment of allergic rhinitis” (Bioorg Med Chem Lett, 2004).

Legend:
Thromboxane A2 receptor = target: T1, Thromboxane A2 receptor (Homo sapiens, UniProt P21731); assay: Binding affinity against human recombinant Thromboxane A2 receptor was determined using radioligand competition binding assay
T1 sequence (P21731 whole entry): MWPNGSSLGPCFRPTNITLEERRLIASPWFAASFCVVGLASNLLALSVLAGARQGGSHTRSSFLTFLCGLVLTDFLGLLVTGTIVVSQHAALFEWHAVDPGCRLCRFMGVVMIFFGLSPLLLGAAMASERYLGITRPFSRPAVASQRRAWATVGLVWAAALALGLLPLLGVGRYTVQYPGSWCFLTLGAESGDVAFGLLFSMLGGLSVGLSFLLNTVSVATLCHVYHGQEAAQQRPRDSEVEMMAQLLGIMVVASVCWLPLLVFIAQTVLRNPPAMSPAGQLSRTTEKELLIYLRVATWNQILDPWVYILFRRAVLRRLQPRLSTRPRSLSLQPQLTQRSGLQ

[1] = target: T2, Prostaglandin D2 receptor (Homo sapiens, UniProt Q13258); assay: Binding affinity against human recombinant […] D2 was determined using radioligand competition binding assay
T2 sequence (Q13258 whole entry): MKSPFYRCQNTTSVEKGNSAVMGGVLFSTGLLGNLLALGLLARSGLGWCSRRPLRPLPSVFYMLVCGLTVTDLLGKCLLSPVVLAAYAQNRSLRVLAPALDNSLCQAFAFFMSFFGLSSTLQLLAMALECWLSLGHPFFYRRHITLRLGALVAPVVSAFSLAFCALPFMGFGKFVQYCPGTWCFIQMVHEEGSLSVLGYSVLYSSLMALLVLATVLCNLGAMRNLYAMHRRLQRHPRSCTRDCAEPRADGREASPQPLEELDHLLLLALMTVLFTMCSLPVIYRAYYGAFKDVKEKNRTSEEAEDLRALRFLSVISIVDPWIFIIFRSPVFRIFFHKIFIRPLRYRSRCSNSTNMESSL

[2] = target: T2, Prostaglandin D2 receptor; assay: Binding affinity against human recombinant […] D2 in presence of 0.5% human serum albumin

SMILES	Ki (Thromboxane A2 receptor) [nM]	Ki [1] [nM]	Ki [2] [nM]
CCOC(=O)c1cc(CSc2nc3ccccc3n2Cc2ccc(Cl)cc2)cc(C(=O)OCC)c1	> 71000	> 43000	–
CSc1ccc(CSc2nc3ccccc3n2Cc2ccc(Cl)cc2)cc1	> 73000	550	–
COC(=O)c1cccc(CSc2nc3ccccc3n2Cc2ccc(Cl)cc2)c1	9300	1100	–
CC(C)(O)c1ccc(CSc2nc3ccccc3n2Cc2ccc(Cl)cc2)cc1	11900	140	–
COC(=O)c1ccc(C[S+]([O-])c2nc3ccccc3n2Cc2ccc(Cl)cc2)cc1 (configuration not stated)	3100	550	1500
COC(=O)c1ccc(-c2nc3ccccc3n2Cc2ccc(Cl)cc2)cc1	7000	8000	800
COC(=O)c1ccc(CCc2nc3ccccc3n2Cc2ccc(Cl)cc2)cc1	2200	24	137
NS(=O)(=O)c1ccc(CSc2nc3ccccc3n2Cc2ccc(Cl)cc2)cc1	> 70000	1200	–
COC(=O)c1ccc(CNc2nc3ccccc3n2Cc2ccc(Cl)cc2)cc1	6000	1100	–
CC(O)c1ccc(CSc2nc3ccccc3n2Cc2ccc(Cl)cc2)cc1 (configuration not stated)	1500	270	–
Fc1ccc(CSc2nc3ccccc3n2Cc2ccc(Cl)cc2)cc1	6100	> 42000	–
CC(=O)c1ccc(CSc2nc3ccccc3n2Cc2ccc(Cl)cc2)cc1	3800	300	–
Cc1nc(-c2ccc(CSc3nc4ccccc4n3Cc3ccc(Cl)cc3)cc2)no1	> 74000	96	–
COC(=O)Cc1ccc(CSc2nc3ccccc3n2Cc2ccc(Cl)cc2)cc1	1500	330	–
O=C(O)c1ccc(CSc2nc3ccccc3n2Cc2ccc(Cl)cc2)cc1	4700	3500	–
CN(C)C(=O)c1ccc(CSc2nc3ccccc3n2Cc2ccc(Cl)cc2)cc1	2000	800	–
COC(=O)c1ccc(Nc2nc3ccccc3n2Cc2ccc(Cl)cc2)cc1	900	1500	5400
FC(F)(F)c1ccc(CSc2nc3ccccc3n2Cc2ccc(Cl)cc2)cc1	> 73000	2600	–
Clc1ccc(Cn2c(SCc3ccccc3)nc3ccccc32)cc1	4200	6700	–
N#Cc1ccc(CSc2nc3ccccc3n2Cc2ccc(Cl)cc2)cc1	950	4200	–
COC(=O)c1ccc(/C=C/c2nc3ccccc3n2Cc2ccc(Cl)cc2)cc1	> 75000	38	67
Cc1noc(-c2ccc(CSc3nc4ccccc4n3Cc3ccc(Cl)cc3)cc2)n1	> 74000	310	–
COC(=O)c1ccc(Cc2nc3ccccc3n2Cc2ccc(Cl)cc2)cc1	4000	6200	> 12000
CS(=O)(=O)c1ccc(CSc2nc3ccccc3n2Cc2ccc(Cl)cc2)cc1	2000	1100	–
COC(=O)c1ccc(CSc2nc3ccccc3n2Cc2ccc(Cl)cc2)cc1	9100	73	297
